From ChEMBL document CHEMBL5236599, “Design, synthesis and biological evaluation of cajanonic acid A analogues as potent PPAR γ antagonists” (Bioorg Med Chem Lett, 2023)
pIC50: −log10 of the molar value.

Key:
[1] = Induction of insulin-sensitizing activity in insulin-resistant mouse 3T3-L1 cells assessed as glucose consumption at 0.1 uM (reference value: 3.354 +/- 0.342 mM); type: functional
[2] = Induction of insulin-sensitizing activity in insulin-resistant mouse 3T3-L1 cells assessed as increase in glucose consumption at 0.1 uM relative to rosiglitazone; type: functional
[3] = Induction of insulin-sensitizing activity in insulin-resistant mouse 3T3-L1 cells assessed as increase in glucose consumption at 0.1 uM relative to control; type: functional
[4] = Induction of insulin-sensitizing activity in insulin-resistant human HepG2 cells assessed as glucose consumption at 0.1 uM (reference value: 5.83 +/-0.101 mM); type: functional
[5] = Induction of insulin-sensitizing activity in insulin-resistant human HepG2 cells assessed as increase in glucose consumption at 0.1 uM relative to control; type: functional
[6] = biological target: T1, Peroxisome proliferator-activated receptor gamma (Homo sapiens) (UniProt P37231); assay: Antagonist activity at PPAR-gamma (unknown origin) transfected in human HEK293 cells assessed as decrease in rosiglitazone-induced receptor transactivation at 1 uM by dual-luciferase reporter gene assay relative to control; type: cell-based; settings: filed as antagonist
T1 sequence (whole entry): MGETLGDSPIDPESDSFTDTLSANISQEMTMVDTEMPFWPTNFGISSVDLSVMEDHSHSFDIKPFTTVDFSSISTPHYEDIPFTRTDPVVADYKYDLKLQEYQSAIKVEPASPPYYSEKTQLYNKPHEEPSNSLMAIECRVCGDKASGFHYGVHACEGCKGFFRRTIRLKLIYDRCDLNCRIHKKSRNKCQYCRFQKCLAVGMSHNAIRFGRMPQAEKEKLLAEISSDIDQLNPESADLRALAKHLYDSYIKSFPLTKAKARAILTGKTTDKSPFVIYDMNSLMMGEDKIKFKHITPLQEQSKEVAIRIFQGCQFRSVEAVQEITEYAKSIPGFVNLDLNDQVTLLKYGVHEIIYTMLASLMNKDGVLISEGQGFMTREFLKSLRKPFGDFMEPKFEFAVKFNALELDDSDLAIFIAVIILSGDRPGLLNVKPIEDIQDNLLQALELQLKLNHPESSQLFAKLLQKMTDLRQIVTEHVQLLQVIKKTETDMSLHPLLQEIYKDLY

[7] = biological target: T2, Peroxisome proliferator-activated receptor gamma (Mus musculus, UniProt P37238); assay: Agonist activity at PPAR-gamma in mouse 3T3-L1 cells assessed as increase in adipogenesis by measuring increase in oil red staining at 1 uM by Oil-red O staining based analysis relative to control; type: toxicity, cell-based; settings: 3t3-l1, 1 µM
T2 sequence (P37238 whole entry): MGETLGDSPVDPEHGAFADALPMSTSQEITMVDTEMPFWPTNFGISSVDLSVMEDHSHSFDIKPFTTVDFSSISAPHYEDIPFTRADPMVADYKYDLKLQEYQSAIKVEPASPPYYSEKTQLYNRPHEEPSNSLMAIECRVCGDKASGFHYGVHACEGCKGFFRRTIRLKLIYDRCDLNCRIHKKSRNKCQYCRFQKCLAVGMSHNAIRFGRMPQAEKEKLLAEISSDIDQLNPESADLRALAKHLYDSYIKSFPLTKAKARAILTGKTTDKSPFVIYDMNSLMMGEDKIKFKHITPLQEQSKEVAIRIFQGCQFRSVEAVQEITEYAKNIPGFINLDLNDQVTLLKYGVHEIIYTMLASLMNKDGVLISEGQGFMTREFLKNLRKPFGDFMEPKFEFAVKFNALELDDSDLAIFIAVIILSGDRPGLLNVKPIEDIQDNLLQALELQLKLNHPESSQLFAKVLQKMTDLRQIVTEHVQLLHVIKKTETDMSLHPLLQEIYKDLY

[8] = biological target: T1, Peroxisome proliferator-activated receptor gamma (Homo sapiens); assay: Antagonist activity at PPAR-gamma (unknown origin) transfected in human HEK293 cells assessed as decrease in rosiglitazone-induced receptor transactivation at 10 uM by dual-luciferase reporter gene assay relative to control; type: cell-based; settings: filed as antagonist
[9] = species: Mus musculus; assay: Hypoglycemic activity in db/db mouse assessed as AUC of blood glucose level by oral glucose tolerance test (reference value: 114.8 mmol.min/L); type: functional
[10] = Cytotoxicity against mouse 3T3-L1 cells assessed as cell viability at 0.1 uM; type: toxicity, cell-based; settings: read-out: Activity
[11] = biological target: T3, Peroxisome proliferator-activated receptor gamma (Homo sapiens, UniProt P37231); assay: Displacement of Fluormone Pan-PPAR Green from human recombinant GST-tagged PPARgamma LBD (201 to 475 residues) expressed in insect cells incubated for 2 hrs in dark by LantahScreen TR-FRET assay
T3 sequence (P37231 whole entry): T1 sequence (whole entry)

Structure (SMILES)	Activity [1] [mM]	fold change (FC) [2]	Activity [3] [%]	Activity [4] [mM]	Activity [5] [%]	inhibition [6] [%]	Activity [7] [%]	inhibition [8] [%]	AUC [9] [mmol·min/L]	viability at 0.1 µM [10] [%]	pIC50 [11]
COc1cc(O)c(C(=O)O)c(CC(=O)c2cccc(-c3ccccc3Cl)c2)c1CC=C(C)C	6.471	1.6	72.61	7.771	33.27	50.2	7.04	96.2	106		
COc1cc(CC(=O)c2cccc(-c3ccccc3C(F)(F)F)c2)c(C(=O)O)c(O)c1CC=C(C)C	4.333		15.58	8.368	43.51			40.5		< 50	
COc1cc(CC(=O)c2cccc(-c3ccc(F)cc3)c2)c(C(=O)O)c(O)c1CC=C(C)C	3.741		-0.2	5.195	-10.9					< 50	
CCc1ccc(CCOc2ccc(CC3SC(=O)NC3=O)cc2)nc1 (configuration not stated) [PIOGLITAZONE]									94.8		
Cc1c(C)n(Cc2ccc(C(C)(C)C(=O)O)cc2)c2ccc(C(=O)N[C@@H](C)c3cccc(C4CC4)c3)cc12											6.97
